This is an account of results in US12540141B2, “Spiropyrrolidine derived antiviral agents” (priority 2020, dated 2026).

What is called IC50 is the point on the concentration scale where inhibition reaches its midpoint.

The target in this test is SARS-CoV-2 3CL-protease (Severe acute respiratory syndrome coronavirus 2, UniProt P0DTD1). The test is described as follows: SARS-CoV-2 3C-Like (3CL) Protease Fluorescence Assay (FRET). The format is biochemical. To be noted: SARS-CoV-2 3CL-protease 10 nM, 30 min preincubation at RT, substrate 40 μM.
For `CN(C(=O)C(F)(F)c1ccncc1)[C@@H](CC(C)(C)F)C(=O)N1C[C@]2(C[C@H]1C#N)C(=O)Nc1ccc(Cl)cc12` [Example 480], the IC50 is less than 100 nM.

In turn, `CC(C)C[C@@H](C(=O)N1C[C@]2(C[C@H]1C#N)C(=O)Nc1ccccc12)N(C)C(=O)c1cc2sccc2[nH]1` [Example 209] returned an IC50 of less than 100 nM.

`CC(C)(C)C[C@H](NC(=O)c1ccc2ncc(C3CC3)cc2c1)C(=O)N1C[C@]2(C[C@H]1C#N)C(=O)Nc1ccccc12` [Example 136] gave an IC50 of less than 100 nM.

Molecule `CN(C(=O)[C@H](O)C(C)(C)C)[C@@H](CC1CC1)C(=O)N1C[C@]2(C[C@H]1C#N)C(=O)Nc1ccccc12` [Example 417] gave an IC50 of less than 100 nM.

`CC(C)C[C@@H](C(=O)N1C[C@]2(C[C@H]1C#N)C(=O)Nc1ccccc12)N(C)C(=O)c1ccc(F)c(-c2ccccc2)c1` [Example 272]: the IC50 was 100 to 1000 nM.

Molecule `[2H]C([2H])([2H])N(C(=O)c1cn(C2CCC2)nn1)[C@@H](CC(C)(C)C)C(=O)N1C[C@]2(C[C@H]1C#N)C(=O)Nc1ccccc12` [Example 379] came in with an IC50 of less than 100 nM.

Consider `CC(C)C[C@@H](C(=O)N1C[C@]2(C[C@H]1C#N)C(=O)Nc1ccccc12)N(C)C(=O)c1c(Cl)ccc(Cl)c1F` [Example 169], for which the IC50 was less than 100 nM.

Regarding `CC(C)C[C@@H](C(=O)N1C[C@]2(C[C@H]1C#N)C(=O)Nc1ccccc12)N(C)C(=O)c1ccc2nc(N)sc2c1` [Example 225], the IC50 was more than 1000 nM.

Regarding `CC(C)C[C@@H](C(=O)N1C[C@]2(C[C@H]1C#N)C(=O)Nc1ccccc12)N(C)C(=O)c1cccc(OC(F)(F)F)c1` [Example 189], the IC50 lay within 100 to 1000 nM.

Take `CC(C)C[C@@H](C(=O)N1C[C@]2(C[C@H]1C#N)C(=O)Nc1ccccc12)N(C)C(=O)c1ccc2cc(F)ccc2c1` [Example 222]: the IC50 lay within 100 to 1000 nM.

`Cc1cc(F)c(C(=O)N(C)[C@@H](CC(C)C)C(=O)N2C[C@]3(C[C@H]2C#N)C(=O)Nc2ccccc23)cc1-c1cnn(C2CC2)c1` [Example 342] gave an IC50 of less than 100 nM.

On to `CN(C(=O)c1cc2cccnc2[nH]1)[C@@H](CC(C)(C)F)C(=O)N1C[C@]2(C[C@H]1C#N)C(=O)Nc1ccc(Cl)cc12` [Example 470], for which the half-inhibitory concentration (IC50) was less than 100 nM.

In turn, `CN(C(=O)c1ccn(CC(F)(F)F)n1)[C@@H](Cc1ccccc1)C(=O)N1C[C@]2(C[C@H]1C#N)C(=O)Nc1ccccc12` [Example 360] yielded an IC50 of less than 100 nM.

As to `CC(C)C[C@@H](C(=O)N1C[C@]2(C[C@H]1C#N)C(=O)Nc1ccccc12)N(C)C(=O)c1cc2cc(C(F)(F)F)ccc2[nH]1` [Example 326], the IC50 is less than 100 nM.

For `CC(C)C[C@@H](C(=O)N1C[C@]2(C[C@H]1C#N)C(=O)Nc1ccccc12)N(C)C(=O)c1cc2ccc(Cl)c(Cl)c2[nH]1` [Example 334], the IC50 is less than 100 nM.

Take `CC(C)(C)C[C@H](NC(=O)c1cc2c(F)cc(F)cc2[nH]1)C(=O)N1C[C@]2(C[C@H]1C#N)C(=O)Nc1ccc(Cl)cc12` [Example 448]: the IC50 was less than 100 nM.

Turning to `CC(C)C[C@@H](C(=O)N1C[C@]2(C[C@H]1C#N)C(=O)Nc1ccccc12)N(C)C(=O)c1ccc2c(=O)[nH]ccc2c1` [Example 276], the IC50 was less than 100 nM.

As to `[2H]C([2H])([2H])N(C(=O)c1nc(-c2ccccc2)c[nH]1)[C@@H](CC(C)(C)C)C(=O)N1C[C@]2(C[C@H]1C#N)C(=O)Nc1ccccc12` [Example 376], the IC50 is less than 100 nM.

Turning to `CC(C)C[C@@H](C(=O)N1C[C@]2(C[C@H]1C#N)C(=O)Nc1ccccc12)N(C)C(=O)c1nc2c(F)c(F)c(F)cc2[nH]1` [Example 273], the IC50 lay in the range of 100 to 1000 nM.

In the case of `CC(C)C[C@@H](C(=O)N1C[C@]2(C[C@H]1C#N)C(=O)Nc1ccccc12)N(C)C(=O)c1ccc2c(Cl)ccnc2c1` [Example 271], the IC50 was 100 to 1000 nM.

`CC(C)C[C@@H](C(=O)N1C[C@]2(C[C@H]1C#N)C(=O)Nc1ccccc12)N(C)C(=O)c1ccc(Cl)c(Cl)c1` [Example 166] gave an IC50 of less than 100 nM.

In turn, `CC(C)C[C@@H](C(=O)N1C[C@]2(C[C@H]1C#N)C(=O)Nc1ccccc12)N(C)C(=O)c1cccc(Cl)c1` [Example 167] came in with an IC50 of less than 100 nM.

For the molecule `COc1cc(C(=O)N(C)[C@@H](CC(C)C)C(=O)N2C[C@]3(C[C@H]2C#N)C(=O)Nc2ccccc23)cc2cn(C3(C)CC3)nc12` [Example 319], the IC50 was less than 100 nM.

On to `CC(C)C[C@@H](C(=O)N1C[C@]2(C[C@H]1C#N)C(=O)Nc1ccccc12)N(C)C(=O)C[C@H](Cc1cc(F)c(F)cc1F)NC(=O)OC(C)(C)C` [Example 291], for which the IC50 is less than 100 nM.

Regarding `CC(C)C[C@@H](C(=O)N1C[C@]2(C[C@H]1C#N)C(=O)Nc1ccccc12)N(C)C(=O)c1ccc2cnn(C)c2c1` [Example 224], the IC50 is less than 100 nM.

With `CC(C)C[C@@H](C(=O)N1C[C@]2(C[C@H]1C#N)C(=O)Nc1ccccc12)N(C)C(=O)c1nc2cc(Cl)c(Cl)cc2[nH]1` [Example 251], the IC50 was 100 to 1000 nM.

`CC(C)C[C@@H](C(=O)N1C[C@]2(C[C@H]1C#N)C(=O)Nc1ccccc12)N(C)C(=O)c1nc2c(F)cc(F)cc2[nH]1` [Example 269] had an IC50 of less than 100 nM.

Turning to `CC(C)C[C@@H](C(=O)N1C[C@]2(C[C@H]1C#N)C(=O)Nc1ccccc12)N(C)C(=O)c1ccc2ncc(C(F)(F)F)cc2c1` [Example 237], the IC50 is less than 100 nM.

Molecule `CN(C(=O)[C@H](O)c1ccccc1F)[C@@H](CC1CC1)C(=O)N1C[C@]2(C[C@H]1C#N)C(=O)Nc1ccccc12` [Example 425] registered an IC50 of less than 100 nM.

For the molecule `CN(C(=O)C(F)(F)c1ccccn1)[C@@H](CC(C)(C)F)C(=O)N1C[C@]2(C[C@H]1C#N)C(=O)Nc1ccc(Cl)cc12` [Example 481], the IC50 is less than 100 nM.

`CC(C)C[C@@H](C(=O)N1C[C@]2(C[C@H]1C#N)C(=O)Nc1ccccc12)N(C)C(=O)c1cc2cccc(C(F)(F)F)c2[nH]1` [Example 336] had an IC50 of less than 100 nM.

`CC(C)C[C@@H](C(=O)N1C[C@]2(C[C@H]1C#N)C(=O)Nc1ccccc12)N(C)C(=O)c1cnn(C(C)(C)C)c1` [Example 352]: the IC50 is less than 100 nM.

`CC(C)C[C@@H](C(=O)N1C[C@]2(C[C@H]1C#N)C(=O)Nc1ccccc12)N(C)C(=O)c1ccc2cccnc2c1O` [Example 285] registered an IC50 of 100 to 1000 nM.

`CC(C)C[C@@H](C(=O)N1C[C@]2(C[C@H]1C#N)C(=O)Nc1ccccc12)N(C)C(=O)c1ccc2cccnc2c1` [Example 218] displayed an IC50 of 100 to 1000 nM.

Molecule `CC(C)C[C@@H](C(=O)N1C[C@]2(C[C@H]1C#N)C(=O)Nc1ccc(Br)cc12)N(C)C(=O)c1cc2c(F)cc(F)cc2[nH]1` [Example 508] had an IC50 of less than 100 nM.

Molecule `CC(C)C[C@@H](C(=O)N1C[C@]2(C[C@H]1C#N)C(=O)Nc1ccccc12)N(C)C(=O)CCNC(=O)OC(C)(C)C` [Example 366] came in with an IC50 of less than 100 nM.

In the case of `CN(C(=O)c1cc2c(F)cc(F)c(F)c2[nH]1)[C@@H](CC(C)(C)F)C(=O)N1C[C@]2(C[C@H]1C#N)C(=O)Nc1cccnc12` [Example 552], the IC50 is less than 100 nM.

In turn, `CC(C)C[C@@H](C(=O)N1C[C@]2(C[C@H]1C#N)C(=O)Nc1ccccc12)N(C)C(=O)c1cc2cncnc2[nH]1` [Example 489] gave an IC50 of less than 100 nM.

As for `[2H]C([2H])([2H])N(C(=O)c1cc2c(F)cc(F)cc2[nH]1)[C@@H](CC(C)(C)F)C(=O)N1C[C@]2(C[C@H]1C#N)C(=O)Nc1ccc(Cl)cc12` [Example 454], the IC50 is less than 100 nM.

`CC(C)C[C@@H](C(=O)N1C[C@]2(C[C@H]1C#N)C(=O)Nc1ccccc12)N(C)C(=O)c1cc2ccc(=O)[nH]c2cc1OC1CC1` [Example 254] registered an IC50 of less than 100 nM.

`COc1cc(F)c2cc(C(=O)N(C)[C@@H](CC(C)C)C(=O)N3C[C@]4(C[C@H]3C#N)C(=O)Nc3ccccc34)[nH]c2c1F` [Example 292] returned an IC50 of less than 100 nM.

In the case of `CC(C)C[C@@H](C(=O)N1C[C@]2(C[C@H]1C#N)C(=O)Nc1ccccc12)N(C)C(=O)c1cccc2ncc(F)cc12` [Example 304], the IC50 was less than 100 nM.

Regarding `[2H]C([2H])([2H])N(C(=O)c1cnn2cc(Cl)ccc12)[C@@H](CCCC)C(=O)N1C[C@]2(C[C@H]1C#N)C(=O)Nc1ccccc12` [Example 398], the IC50 is less than 100 nM.

`N#C[C@@H]1C[C@@]2(CN1C(=O)[C@H](Cc1ccccc1F)NC(=O)c1cc3c(F)cc(F)cc3[nH]1)C(=O)Nc1ccc(Cl)cc12` [Example 451]: the concentration for half-maximal inhibition (IC50) was less than 100 nM.

`CC(C)C[C@@H](C(=O)N1C[C@]2(C[C@H]1C#N)C(=O)Nc1ccccc12)N(C)C(=O)c1cccc2ccncc12` [Example 293] registered an IC50 of less than 100 nM.

Molecule `COc1ccc(Cl)cc1C(=O)N(C)[C@@H](CC(C)C)C(=O)N1C[C@]2(C[C@H]1C#N)C(=O)Nc1ccccc12` [Example 170] showed an IC50 of less than 100 nM.

`[2H]C([2H])([2H])N(C(=O)Cc1ccncc1)[C@@H](CC(C)(C)F)C(=O)N1C[C@]2(C[C@H]1C#N)C(=O)Nc1ccc(Cl)cc12` [Example 474] displayed an IC50 of less than 100 nM.

For the molecule `CC(C)C[C@@H](C(=O)N1C[C@]2(C[C@H]1C#N)C(=O)Nc1ccccc12)N(C)C(=O)c1cc(-c2ccccc2)ccc1Cl` [Example 262], the IC50 fell in the range of 100 to 1000 nM.

As for `CC(C)C[C@@H](C(=O)N1C[C@]2(C[C@H]1C#N)C(=O)Nc1ccccc12)N(C)C(=O)c1cn(C)cn1` [Example 201], the IC50 fell in the range of 100 to 1000 nM.

The molecule `C[C@H](OC(=O)N[C@@H](CC(C)(C)C)C(=O)N1C[C@]2(C[C@H]1C#N)C(=O)Nc1ccc(F)cc12)c1ccc(F)cc1` [Example 524] gave an IC50 of less than 100 nM.

For `CC(C)C[C@@H](C(=O)N1C[C@]2(C[C@H]1C#N)C(=O)Nc1ccc(C#C[Si](C)(C)C)cc12)N(C)C(=O)c1cc2c(F)cc(F)cc2[nH]1` [Example 509], the IC50 is less than 100 nM.

The molecule `[2H]C([2H])([2H])N(C(=O)c1cn(CC(F)(F)F)nn1)[C@@H](CC(C)(C)C)C(=O)N1C[C@]2(C[C@H]1C#N)C(=O)Nc1ccccc12` [Example 380] gave an IC50 of less than 100 nM.

`CN(C(=O)c1cc2ncccc2[nH]1)[C@@H](CC1CC1)C(=O)N1C[C@]2(C[C@H]1C#N)C(=O)Nc1ccc(Cl)cc12` [Example 456] had an IC50 of less than 100 nM.

The molecule `CC(C)C[C@@H](C(=O)N1C[C@]2(C[C@H]1C#N)C(=O)Nc1ccc(-c3ccc(F)cc3)cc12)N(C)C(=O)c1cc2c(F)cc(F)cc2[nH]1` [Example 511] yielded an IC50 of less than 100 nM.
